Where a name gives a salt, the structure may show the parent alone. Read-outs that look alike come from different tables or passages of the source.
Legend:
[1] = molecular target: T1, SARS-CoV-2 PLpro (nsp3 1564–1878) (Severe acute respiratory syndrome coronavirus 2, UniProt P0DTD1); test: biochemical; design: FRET-quenched peptide (Pro3) cleavage by PLpro, 10 min pre-incubation, slope over 20 min, normalised to no-compound control; conditions: high concentration screen, read-out: % of control remaining
[2] = molecular target: T1, SARS-CoV-2 PLpro (nsp3 1564–1878); test: biochemical; design: FRET-quenched peptide (Pro3) cleavage by PLpro, 10 min pre-incubation, slope over 20 min, normalised to no-compound control; conditions: low concentration screen, read-out: % of control remaining

## O=c1[nH]c(=O)n([C@H]2C[C@H](O)[C@@H](CO)O2)cc1Cl [5-Chloro-2'-deoxyuridine]
[1]; Well no.=7814
  remaining activity at 3.75 µM: 102%
[2]; Well no.=7814
  remaining activity at 1.25 µM: 101%

## COc1nc(OCc2cccc(-c3ccccc3)c2C)ccc1CNCCNC(C)=O [BMS-202]
[1]; Well no.=8469
  remaining activity at 3.75 µM: 95.5%
[1]; Well no.=8694
  remaining activity at 3.75 µM: 93.7%
[2]; Well no.=8469
  remaining activity at 1.25 µM: 100%
[2]; Well no.=8694
  remaining activity at 1.25 µM: 96.5%

## Nc1nc(NCCc2ccc(O)cc2)nc2nc(-c3ccco3)nn12 [ZM241385]
[1]; Well no.=7042
  remaining activity at 3.75 µM: 104%
[1]; Well no.=8411
  remaining activity at 3.75 µM: 88.3%
[2]; Well no.=7042
  remaining activity at 1.25 µM: 106%
[2]; Well no.=8411
  remaining activity at 1.25 µM: 90.6%

## CC[C@]1(O)C[C@@H]2CN(CCc3c([nH]c4ccccc34)[C@@](C(=O)OC)(c3cc4c(cc3OC)N(C)[C@H]3[C@@](O)(C(N)=O)[C@H](O)[C@]5(CC)C=CCN6CC[C@]43[C@@H]65)C2)C1 [Vindesine sulfate]
[1]; Well no.=2031
  remaining activity at 3.75 µM: 103%
[2]; Well no.=2031
  remaining activity at 1.25 µM: 102%

## CN[C@@H]1[C@@H](O[C@H]2O[C@H](CO)[C@@H](N)[C@H](O)[C@H]2O)O[C@H]2C[C@@H](N)[C@@H](O[C@H]3[C@H](O)[C@@H](O)[C@H](N)C[C@@H]3N)O[C@@H]2[C@@H]1O [Apramycin]
[1]; Well no.=2127
  remaining activity at 3.75 µM: 102%
[2]; Well no.=2127
  remaining activity at 1.25 µM: 99.8%

## C[C@]12C=CC(=O)C=C1CC[C@@H]1C2=CC[C@]2(C)[C@@H](C(=O)CN3CCN(c4cc(N5CCCC5)nc(N5CCCC5)n4)CC3)CC[C@@H]12 [U-74389G maleate]
[1]; Well no.=1236
  remaining activity at 3.75 µM: 106%
[2]; Well no.=1236
  remaining activity at 1.25 µM: 104%

## O=C(O)c1cc(=O)cc(C(=O)O)o1 [Chelidonic acid]
[1]; Well no.=6682
  remaining activity at 3.75 µM: 102%
[2]; Well no.=6682
  remaining activity at 1.25 µM: 102%

## N#Cc1cc(NC(=O)C(=O)O)c(Cl)c(NC(=O)C(=O)O)c1 [Lodoxamide]
[1]; Well no.=8241
  remaining activity at 3.75 µM: 105%
[2]; Well no.=8241
  remaining activity at 1.25 µM: 107%

## Cc1[nH]c2ccccc2c1C1=C(NCCc2ccc(F)cc2)C(=O)N(C)C1=O [IM-12]
[1]; Well no.=5776
  remaining activity at 3.75 µM: 100%
[2]; Well no.=5776
  remaining activity at 1.25 µM: 99.9%

## CC(C)(C)c1cc(C=C(C#N)C#N)cc(C(C)(C)C)c1O [Tyrphostin A9]
[1]; Well no.=1426
  remaining activity at 3.75 µM: 101%
[2]; Well no.=1426
  remaining activity at 1.25 µM: 99.8%

## CN(C)CCc1c[nH]c2ccc(CS(=O)(=O)N3CCCC3)cc12 [Almotriptan (malate)]
[1]; Well no.=6271
  remaining activity at 3.75 µM: 106%
[2]; Well no.=6271
  remaining activity at 1.25 µM: 106%

## CC[C@@H]1C(=O)OC[C@@H]1Cc1cncn1C [Pilocarpine (Hydrochloride)]
[1]; Well no.=7627
  remaining activity at 3.75 µM: 96.7%
[2]; Well no.=7627
  remaining activity at 1.25 µM: 99.7%

## Nc1[nH]nc2nnc(-c3c(-c4ccccc4)nn4ccccc34)cc12 [ERK Inhibitor II, FR180204]
[1]; Well no.=2454
  remaining activity at 3.75 µM: 103%
[2]; Well no.=2454
  remaining activity at 1.25 µM: 103%

## CC(=O)c1ccc(NC2=C(Cl)C(=O)c3ccccc3C2=O)cc1 [NQ301]
[1]; Well no.=5652
  remaining activity at 3.75 µM: 82.1%
[2]; Well no.=5652
  remaining activity at 1.25 µM: 93.7%

## CCOc1ccccc1OCCN[C@H](C)Cc1ccc(OC)c(S(N)(=O)=O)c1 [Tamsulosin]
[1]; Well no.=2295
  remaining activity at 3.75 µM: 95.1%
[1]; Well no.=7386
  remaining activity at 3.75 µM: 94.5%
[2]; Well no.=2295
  remaining activity at 1.25 µM: 95%
[2]; Well no.=7386
  remaining activity at 1.25 µM: 98.7%

## Cc1cc(Cl)ccc1OCCCC(=O)NO [Droxinostat]
[1]; Well no.=5239
  remaining activity at 3.75 µM: 96.2%
[2]; Well no.=5239
  remaining activity at 1.25 µM: 101%

## CCN(CCCCO)C(C)Cc1ccc(O)cc1 (stereo not drawn) [O-desmethyl Mebeverine alcohol (hydrochloride)]
[1]; Well no.=8489
  remaining activity at 3.75 µM: 99.4%
[2]; Well no.=8489
  remaining activity at 1.25 µM: 94.7%

## NC(N)=NCCC[C@H](NC(=O)c1sccc1NS(=O)(=O)c1cccc2nsnc12)C(=O)O [EG00229]
[1]; Well no.=8174
  remaining activity at 3.75 µM: 96.8%
[2]; Well no.=8174
  remaining activity at 1.25 µM: 101%

## CCCCCCCCCC(=O)O [Decanoic acid]
[1]; Well no.=4540
  remaining activity at 3.75 µM: 95.8%
[1]; Well no.=6973
  remaining activity at 3.75 µM: 107%
[2]; Well no.=4540
  remaining activity at 1.25 µM: 93.6%
[2]; Well no.=6973
  remaining activity at 1.25 µM: 105%

## Cc1cc(Nc2ccc(NC(=O)c3ccc(Nc4ccnc5ccccc45)cc3)cc2)nc(N)n1 [SGI-1027]
[1]; Well no.=5518
  remaining activity at 3.75 µM: 102%
[2]; Well no.=5518
  remaining activity at 1.25 µM: 105%

## O=C(NCCO)c1cccc(-c2cc(Nc3ccc(OC(F)(F)F)cc3)ncn2)c1 [GNF-5]
[1]; Well no.=5861
  remaining activity at 3.75 µM: 98.1%
[2]; Well no.=5861
  remaining activity at 1.25 µM: 105%

## CC(C)CC(N(C)C)C1(c2ccc(Cl)cc2)CCC1 (stereo not drawn) [Sibutramine]
[1]; Well no.=2249
  remaining activity at 3.75 µM: 98.7%
[2]; Well no.=2249
  remaining activity at 1.25 µM: 95.2%

## OCCN1CCN(CCCN2c3ccccc3Sc3ccc(Cl)cc32)CC1 [Perphenazine]
[1]; Well no.=1006
  remaining activity at 3.75 µM: 99.2%
[1]; Well no.=6319
  remaining activity at 3.75 µM: 99.7%
[2]; Well no.=1006
  remaining activity at 1.25 µM: 98.7%
[2]; Well no.=6319
  remaining activity at 1.25 µM: 104%

## CN[C@@H](C)C(=O)N[C@H](C(=O)N1CCC[C@H]1C(=O)Nc1sc(-c2ncco2)nc1-c1ccccc1)C1CCCCC1 [CUDC-427]
[1]; Well no.=7062
  remaining activity at 3.75 µM: 92.1%
[2]; Well no.=7062
  remaining activity at 1.25 µM: 99.8%

## CC(=O)CCCCn1c(=O)c2c(ncn2C)n(C)c1=O [Pentoxifylline]
[1]; Well no.=1046
  remaining activity at 3.75 µM: 94.8%
[1]; Well no.=2101
  remaining activity at 3.75 µM: 100%
[2]; Well no.=1046
  remaining activity at 1.25 µM: 92.7%
[2]; Well no.=2101
  remaining activity at 1.25 µM: 101%

## Nc1nc(Cl)nc2c1ncn2[C@H]1C[C@H](O)[C@@H](CO)O1 [Cladribine]
[1]; Well no.=5101
  remaining activity at 3.75 µM: 108%
[1]; Well no.=8050
  remaining activity at 3.75 µM: 100%
[2]; Well no.=5101
  remaining activity at 1.25 µM: 107%
[2]; Well no.=8050
  remaining activity at 1.25 µM: 99%

## COc1cnc(-n2cnc(C)n2)c2[nH]cc(C(=O)C(=O)N3CCN(C(=O)c4ccccc4)CC3)c12 [Temsavir]
[1]; Well no.=7886
  remaining activity at 3.75 µM: 98%
[2]; Well no.=7886
  remaining activity at 1.25 µM: 97.2%

## O=[N+]([O-])c1ccc2c(c1)S(=O)(=O)C=C2 [Stattic]
[1]; Well no.=4748
  remaining activity at 3.75 µM: 104%
[2]; Well no.=4748
  remaining activity at 1.25 µM: 104%

## COc1ccc2c(c1O)-c1c(OC)c(OC)cc3c1[C@H](C2)N(C)CC3 [(+)-Isocorydine hydrochloride]
[1]; Well no.=3244
  remaining activity at 3.75 µM: 95.5%
[2]; Well no.=3244
  remaining activity at 1.25 µM: 93.2%

## CCN(CC)CCCC(C)Nc1c2ccc(Cl)cc2nc2ccc(OC)cc12 (stereo not drawn) [Quinacrine]
[1]; Well no.=2187
  remaining activity at 3.75 µM: 97.2%
[2]; Well no.=2187
  remaining activity at 1.25 µM: 96.6%

## CC1COc2c(N3CCN(C)CC3)c(F)cc3c(=O)c(C(=O)O)cn1c23 (stereo not drawn) [Ofloxacin]
[1]; Well no.=898
  remaining activity at 3.75 µM: 105%
[1]; Well no.=2047
  remaining activity at 3.75 µM: 104%
[2]; Well no.=898
  remaining activity at 1.25 µM: 106%
[2]; Well no.=2047
  remaining activity at 1.25 µM: 104%

— paper PMC8286840, “Identifying SARS-CoV-2 antiviral compounds by screening for small molecule inhibitors of Nsp3 papain-like protease” (Biochemical Journal, 2021)
